Source: patent US20170143605A1, “Compositions Comprising Osteopontin Derivatives for the Inhibition of Hair Growth” (FOLLICUM AB, priority 2014, published 2017)

Key:
[1] = test system: human HFs in organ-cultured full-thickness human scalp skin fragments; experiment: Masson Fontana HF pigmentation in organ-cultured human scalp skin fragments; type: cell-based; conditions: at the doses tested; pooled data from 6 patients
Method: FIG. 15). Masson Fontana staining. […] Anagen & Catagen Hair Follices analysed. Pooled data from 6 patients. Mean+/−SEM, n=41-51 HFs evaluated, unpaired Student's t-test, ns
FIG. 17). Masson Fontana staining. […] Anagen HFs analysed. Pooled data from 6 patients. Mean+/−SEM, n=13-22 HFs evaluated, unpaired Student's t-test, ns
(§1) The following experiments were performed using human HFs in organ-cultured full-thickness human scalp skin fragments (4 mm, 6 female patients, 42-65 yrs).

[2] = test system: intact human scalp skin; experiment: Ki67/TUNEL double immunofluorescence in intact human scalp skin; type: cell-based; conditions: 60 nM; 3 days after treatment
Method: FIG. 7). Effect of FOL-005 on proliferation of Ki67 positive cells in intact human scalp skin. The concentration of FOL-005 was 60 nM, Mean+/−SEM, n=6-17 photos/punch was evaluated. “D3”=3 days after treatment.
To evaluate apoptotic and proliferating cells, double immunofluorescence was applied. Terminal dUTP nicked label-ling (ApopTag®Fluorescein in situ Apoptosis Detection Kit; Chemicon, Tenecula, Calif., USA) was used as a marker for apoptosis, and Ki67 immunoreactivity (DakoCytomation, Glostrup, Denmark) as indicator of cell proliferation, as previously described (Foitzik et. al., 2006).
Masson Fontana staining and immunohistochemistry was performed as described above.
The proliferation of Ki67 positive cells and apoptosis therein was determined as described in Whiting et al., 1999, J Investig Dermatol Symp Proc 4:282-284 (the relevant disclosures of which are incorporated by reference).
Cells were exposed to exemplary polypeptide FOL-005 at a dose of 60 nM.

[3] = test system: human HFs in organ-cultured full-thickness human scalp skin fragments; experiment: Ki67/TUNEL proliferation/apoptosis in organ-cultured human scalp skin fragments; type: cell-based; conditions: 15 nM; anagen and catagen HFs analysed
Method: FIG. 20). Ki67/TUNEL. […] Anagen & Catagen HFs analysed. Pooled data from 6 patients. Mean+/−SEM, n=48-59 HFs evaluated, Mann-Whitney test, *p<0.02. To reduce data distortion by outliers, Grubb's test was performed and the outlier value was eliminated from analysis.
as §1
Mean+/−SEM, n=48-59 HFs evaluated, Mann-Whitney test, *p<0.02. To reduce data distortion by outliers, Grubb's test was performed and the outlier value was eliminated from analysis.

[4] = test system: human HFs in organ-cultured full-thickness human scalp skin fragments; experiment: CD31 staining (indirect immunofluorescence); type: cell-based
Method: FIG. 24). CD31 staining HS14-061 (indirect immunoflourescence, mouse anti-human CD31 Ab from DAKO).
as §1

[5] = test system: human HFs in organ-cultured full-thickness human scalp skin fragments; experiment: Hair follicle morphology (PAS staining); type: cell-based
Method: as §1

[6] = test system: human HFs in organ-cultured full-thickness human scalp skin fragments; experiment: Emigration of dermal papilla cells in organ-cultured human scalp skin fragments; type: cell-based; conditions: anagen HFs only; pooled data from six patients
Method: FIG. 11). Effect of FOL-005 on emigration of Dermal Papilla (DP) cells. Only Anagen Hair follicles (HFs) analysed. Results based on pooled data from 6 patients. No significant change in the number of emigrating DP cells in HFs treated with FOL-005. Mean+/−SEM, n=18-22 HFs evaluated, Mann-Whitney test, ns
as §1

[7] = test system: human HFs in organ-cultured full-thickness human scalp skin fragments; experiment: K15 staining (indirect immunofluorescence); type: cell-based
Method: FIG. 25). […] Preservation of HF stem cell pool and thus regenerative potential by FOL-005.
as §1
K15 staining was performed using HS14-087 (indirect immunoflourescence, mouse anti-human CK15 Ab from Chemikon).

[8] = test system: intact human scalp skin; experiment: Masson-Fontana melanin pigmentation in intact human scalp skin; type: cell-based; conditions: injection or addition to the culture medium
Method: FIG. 8). Effect of FOL-005 on melatonin content in intact human scalp skin. The analysis was performed using Masson Fontana histochemistry and morphometric evaluation of each tissue section. Results presented as mean+/−SEM. One-way ANOVA and Bonferroni's post-hoc test, **p<0.01, *p<0.05. “D3”=3 days after treatment.
(§2) At different time points, skin specimens were embedded in O.C.T.™ Tissue-TEK (Sakura, Zoeterwoude, the Netherlands), frozen in liquid nitrogen, and 6 μm cryosections were cut. The sections were then post-fixed in acetone, air-dried and processed for haematoxylin and eosin (H&E; Sigma), Giemsa or Masson-Fontana histochemistry. Individual hair follicles were analysed with respect to their stage of cycling as described (Whiting et al. 1999), while hair follicle melanization was assessed by standard silver nitrate histochemistry (Masson-Fontana stain). Quantification of well-defined reference areas within the proximal hair matrix was performed using the Image J software (NIH).
Pigmentation changes in isolated follicles treated with exemplary polypeptide FOL-005 were assessed by Masson-Fontana histochemistry (see Whiting et al., 1999, J Investig Dermatol Symp Proc 4:282-284, the relevant disclosures of which are incorporated by reference).

[9] = test system: isolated human hair follicles; experiment: Masson Fontana melanin pigmentation analysis in cultured isolated human hair follicles; type: cell-based; conditions: 60 nM
Method: FIG. 3). Effect of FOL-005 on melatonin content in cultured isolated human hair follicles. The analysis was performed using Masson Fontana histochemistry and morphometric evaluation of each tissue section. Results presented as mean+/−SEM, n=26-47 hair follicles evaluated in each group. One-way ANOVA and Bonferroni's post-hoc test, *p<0.05
Masson Fontana staining: Cryosections were air dried and fixed in ethanol-acetic acid. The sections were washed in tris-buffered saline (TBS) and distilled water several times. Cryosections were treated with ammoniacal silver solution (Fluka, Seelze, Germany) for 40 min at 56° C. in the dark. After washing in distilled water, the sections were treated with 5% aqueous sodium thiosulphate (Merck, Darmstadt, Germany) for 1 min. Next, the sections were washed in running tap water for 3 min and were counter-stained in 0.5% aqueous neutral red (Sigma). After washing in distilled water, sections were dehydrated and mounted in Eukitt (O. Kindler, Freiburg, Germany).

[10] = test system: intact human scalp skin; experiment: Full-thickness human scalp skin organ culture: hair cycle staging; type: cell-based
Method: Full-thickness human scalp skin organ culture was performed for six days under serum-free conditions as described in (Lu et al., 2007, the disclosures of which are incorporated herein by reference).
In brief, scalp skin of female patients was obtained from routine face-lift surgery after informed consent. Human scalp skin was washed in William's E medium (Biochrom, Cambridge, UK) supplemented with 100 IU/ml penicillin G (Sigma, St Louis, Mo., USA), 10 μg/ml streptomycin (Sigma), 0.25 μg/ml amphotericin B (Gibco, Karlsruhe, Germany) for 5 min. The out-growing hair shafts were shaved off to the level of the epidermis; 2 mm biopsies of intact scalp skin were then punched out (parallel to the direction of hair growth, i.e. at an oblique angle), using an Acu-puncher (STIEFEL, Offenbach am Main, Germany).
The punches of human scalp tissue were carefully placed into William's E medium [supplemented with 100 IU/ml penicillin/10 μg/ml streptomycin, 10 μg/ml of insulin (Sigma), 10 ng/ml of hydrocortisone (Sigma) and 2 mmol/I of I-glutamine (Invitrogen, Paisley, UK)]. The skin fragments were left to float in the medium, with the epidermis up at air/liquid interface and the dermis/subcutis down. The cultures were maintained at 37° C. in a gassed incubator with 95% air and 5% CO2. The culture medium was changed every other day.
Immediately after commencement of culturing, the skin fragments were exposed to the exemplary polypeptide FOL-005 (at a dose of 15 nM to 3 μM), which lasted for the duration of culturing.
as §2

[11] = test system: human male scalp skin grafted onto SCID mice; experiment: Hair growth of human male scalp skin grafted onto SCID mice; type: in vivo; conditions: human scalp grafts on SCID/beige mice; FOL-005 300 nM per graft intradermally twice a week; Minoxidil 5% topically twice a day; three months
Description: The effect of FOL-005 on hair growth of human male scalp skin grafted onto SCID mice was studied.
The aim of the study was to investigate the effect of FOL-005 on hair growth of human male scalp skin with tendency to androgenetic alopecia. In order to address this issue, fort-two female SCID/beige mice, six weeks of age, were involved in the study. Punch grafts, 3 mm^2, obtained from scalp skin of human volunteers with tendency to develop common alopecia, were transplanted onto SCID/beige mice (three grafts per mouse).
One week following transplantation, the mice were randomly divided into four treated groups as follows: • 1. Vehicle (10 mice) was injected intradermally twice a week and served as a negative control. • 2. Minoxidil (5%) (11 mice) was applied topically twice a day and served as appositive control. • 3. FOL-005 (300 nM per graft) (11 mice) was injected intradermally twice a week. • 4. Minoxidil 5%+FOL-005/Minoxidil (5%) (11 mice) was applied topically twice a day. FOL-005 (300 nM per graft) was injected intradermally twice a week. For the first 4 weeks the animals were treated with minoxidil only (in order to initiate hair growth) and then for the remaining period (2 months) FOL-005 treatment was added as injections, while minoxidil treatment was maintained as a topical application.
The number of hairs/graft was counted twice a week by two independent observers. […]

[12] = test system: human HFs in organ-cultured full-thickness human scalp skin fragments; experiment: Toluidine blue staining for perifollicular mast cells; type: cell-based
Method: FIG. 22). Toluidine blue staining for detecting Mast cells.
as §1

[13] = test system: isolated human hair follicles; experiment: Organ culture of isolated human hair follicles: hair cycle staging (anagen to catagen); type: cell-based
Description: Anagen VI hair follicles (see Kloepper et al., 2010, the disclosures of which are incorporated herein by reference) were micro dissected from normal human scalp skin obtained with informed patient consent from three healthy adult females undergoing routine face-lift cosmetic surgery.
Isolated hair follicles were organ-cultured for 6-10 days in insulin- and hydrocortisone-supplemented William's E medium according to Philpott et al. (see Philpott et al., 1990; Bodó et al., 2009; Gáspár et al., 2010, the disclosures of which are incorporated herein by reference).
Treatment with the exemplary polypeptide FOL-005 was initiated immediately upon culturing the hair follicles, and lasted 7 to 10 days.
At the end of organ-culture, hair follicles were embedded and processed for longitudinal cryosections (Bodó et al., 2009; Gáspár et al., 2010).

[14] = test system: human HFs in organ-cultured full-thickness human scalp skin fragments; experiment: Hair cycle staging in organ-cultured human scalp skin fragments; type: cell-based; conditions: pooled data from six patients
Method: FIG. 13). Hair Cycle staging. Treatment of HFs with FOL-005 consistently induces anagen HFs within human scalp skin to enter catagen prematurely in all six patients tested (in each vertical bar, the top region corresponds to mid-catagen, the middle region to early catagen and the bottom region to anagen). Pooled data from 6 patients.
as §1

[15] = test system: human HFs in organ-cultured full-thickness human scalp skin fragments; experiment: MHCII staining (indirect immunofluorescence); type: cell-based
Method: FIG. 23). MHCII staining HS 14-061 (indirect immunofluorescence. Mouse anti human Ab HLA-DP-DQ-DR from DAKO). […] These MHCII+ cells are most likely macrophages.
as §1

VDTYDGDISVVYGLR (FOL-005, Peptide with similarity to sub-region of osteopontin) [exemplary polypeptide of the invention, osteopontin-derived 15-mer]
HF pigmentation [1]: No significant changes | apoptosis (proportion of TUNEL positive cells) [2]: increased level of apoptosis | proliferation (proportion of Ki67 positive cells) [2]: strong tendency towards reduced proliferation | number of apoptotic cells in HFs [3]: significant increase | number of proliferative cells in HFs [3]: No significant changes | number of CD31+ cells (endothelial cells) [4]: No marked differences | morphology of the BM (basal membrane) in HFs [5]: No observable difference | number of emigrating dermal papilla (DP) cells in HFs [6]: No significant effect | number of K15+ cells [7]: No marked differences | human HF epithelial stem cells ([7]; K15 staining): not affected negatively | melanin pigmentation [8]: significant reduction in pigmentation | melanin pigmentation [9]: significant reduction in pigmentation | hair follicles in early catagen ([10]; addition to the culture medium): Almost all hair follicles are observed in early catagen | hair follicle regression (analysis of cryosections) ([10]; human skin pieces (Example B)): promotes hair follicle regression | catagen induction ([10]; injection into the scalp skin tissue): Catagen was also induced | transition from anagen to catagen phase ([10]; intact human scalp skin, 15 nM to 3 μM, six days culture): induced a rapid transition from anagen to catagen phase | number of hairs/graft [11]: 2.1±0.4 hairs/graft | number of histochemically-detectable perifollicular mast cells [12]: No marked difference | hair follicle regression (analysis of cryosections) [13]: promotes hair follicle regression | transition from anagen to catagen phase ([13]; 15 nM, 60 nM and 300 nM, treatment 7 to 10 days): induced a dose-dependent transition from anagen to catagen phase | HF cycling (anagen to catagen) [14]: consistently induced anagen HFs within human scalp skin to enter catagen prematurely in all six patients tested | number of immunohistologically-detectable perifollicular MHC class II+ cells [15]: No marked difference

Nc1cc(N2CCCCC2)nc(N)[n+]1[O-] [Minoxidil, reference compound]
number of hairs/graft [11]: 8.1±0.1 hairs/graft
